We go through 30 molecules from patent US12152038B2, “Vasopressin receptor antagonists and products and methods related thereto” (Neumora Therapeutics, Inc., priority 2017, dated 2024).

Data set [1] deals with T1, human Arginine Vasopressin Receptor 1a (AVPR1a) (Homo sapiens, UniProt P37288).
T1 construct: expressed in transfected cells; host or cells: CHO (CHO-AVPR1a, kept under G418 selection)
Nature of the data set: Vasopressin V1a receptor antagonist assay (FLIPR calcium, CHO-AVPR1a cells). It counts as cell-based. A digest of the protocol: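 CHO cells expressing human AVPR1a were loaded with Calcium-6 dye and preincubated with compound for 15 min at 37° C. Cells were then challenged with AVP at its daily-determined EC80, and FLIPR fluorescence was read. Compounds were tested in duplicate as 10-point 1:3 dilutions from a top final concentration of 3 μM.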

Data set [2] in a line: Wild-type MDCK permeability and efflux assay (Papp, efflux ratio). Format: in vitro ADME. As to conditions: dog, pH 7.4, wild-type MDCK cells; for efflux ratio at 1 h, 10 μM: Papp B>A/Papp A>B, read-out: ER WT (Efflux Ratio). How it is done:
The MDR1-MDCK effective efflux assay was performed as described in the BioFocus Standard Operating Procedure, ADME-SOP-56. Both wild-type (WT) and MDR1-MDCK cells (Solvo Biotechnology) were seeded onto 24-well Transwell plates at 2.35×10^5 cells per well and used in confluent monolayers after a 3 day culture at 37° C. under 5% CO2. For both cell types, test and control compounds (propranolol, vinblastine) were added (10 μM, 0.1% DMSO final, n=2) to donor compartments of the Transwell plate assembly in assay buffer (Hanks balanced salt solution supplemented with 25 mM HEPES, adjusted to pH 7.4) for both apical to basolateral (A>B) and basolateral to apical (B>A) measurements. Incubations were performed at 37° C., with samples removed from both donor and acceptor chambers at T=0 and 1 hour and compound analysed by mass spectrometry (LC-MS/MS) including an analytical internal standard.
Apparent permeability (Papp) values were determined from the relationship: Papp=[CompoundAcceptor T=end]×V Acceptor/([Compound Donor T=0]×V Donor)/incubation time×V Donor/Area×60×10^−6 cm/s
In this equation, V is the volume of each Transwell compartment (apical 125 μL, basolateral 600 μL), and concentrations are the relative MS responses for compound (normalized to internal standard) in the donor chamber before incubation and acceptor chamber at the end of the incubation, and Area is the area of cells exposed for drug transfer (0.33 cm^2).
Efflux ratios (Papp B>A/Papp A>B) were calculated for each compound from the mean Papp values in each direction for both wild-type and MDR1-MDCK cells.
In order to confirm the involvement of MDR1 in any efflux seen, an “effective efflux ratio” (EER) was calculated by comparing compound efflux ratios (ER) in the two cell types by the following equation: EER=ER(MDR1-MDCK)/ER(wild-type MDCK)
This ratio illustrates the effect of the over-expressed MDR1 normalised for the background movement of compound through the wild-type cells.
Lucifer Yellow (LY) was added to the apical buffer in all wells to assess viability of the cell layer. […] Recoveries<50% indicates compound solubility, stability or binding issues, thereby reducing the reliability of a result.
The inherent ability of a potential drug molecule to penetrate the blood brain barrier and avoid efflux by transporters expressed in the brain, can be roughly correlated with the Papp(A-B) and the efflux ratio (as defined above), respectively. A potential drug molecule with an apparent permeability<7 (10^−6 cm/sec) has low permeability (+), >7 (10^−6 cm/sec) but <10 (10^−6 cm/sec) has moderate permeability (++), >10 (10^−6 cm/sec) but <20 (10^−6 cm/sec) has good permeability (+++), and >20 (10^−6 cm/sec) is highly permeable (++++). High permeability in the WT and MDCK II cell permeability assay increases the probability of blood brain barrier penetration and access to the CNS. A potential drug molecule in the above assay system with an efflux ratio or effective efflux ratio of <1 has low probability of being an efflux substrate (++++), >1 but <2 has moderate probability of being an efflux substrate (+++), >2 but <3 has has an increased probability of being an efflux substrate (++), and >3 has a high probability of being an efflux substrate (+). If a potential drug molecule is an efflux substrate, the molecule will have a low probability of reaching exposures in the brain (site of action) that will result in efficacious levels of receptor occupancy.

T1 sequence (P37288 whole entry): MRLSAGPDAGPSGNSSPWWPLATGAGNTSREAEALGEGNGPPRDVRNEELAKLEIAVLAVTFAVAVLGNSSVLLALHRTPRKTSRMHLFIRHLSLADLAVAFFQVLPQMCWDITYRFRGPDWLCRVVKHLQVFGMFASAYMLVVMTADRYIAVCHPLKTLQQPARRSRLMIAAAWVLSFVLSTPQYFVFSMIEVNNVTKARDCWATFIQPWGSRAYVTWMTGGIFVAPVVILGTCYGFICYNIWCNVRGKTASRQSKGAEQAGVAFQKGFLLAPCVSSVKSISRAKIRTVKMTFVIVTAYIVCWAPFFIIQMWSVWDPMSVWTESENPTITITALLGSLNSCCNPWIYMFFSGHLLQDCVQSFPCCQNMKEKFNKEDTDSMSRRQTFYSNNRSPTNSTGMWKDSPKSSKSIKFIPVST

The term IC50 denotes the midpoint of a concentration-inhibition curve. Usually Papp A→B stands for how fast a substance crosses the layer from the apical side. `CC1COc2cc(Cl)ccc2N1C(=O)N1CC2(C1)CN(c1noc3cccnc13)C2` (stereo not drawn) [18-3]: in data set [1], the IC50 is below 0.1 µM. In addition, in data set [2], the Papp A→B at 1 h, 10 μM was above 200 nm/s and the efflux ratio at 1 h, 10 μM was below 1.
Regarding `CC1COc2cc(F)ccc2N1C(=O)N1CC2(C1)CN(c1cc(C#N)ccn1)C2` (single isomer, unassigned) [20-3-B], the IC50 in data set [1] was below 0.1 µM. In data set [2], the Papp A→B at 1 h, 10 μM is above 200 nm/s and the efflux ratio at 1 h, 10 μM is below 1.
In the same order, the values of `Cc1nccnc1N1CC2(CN(C(=O)N3c4ccc(Cl)cc4OCC3C)C2)C1` (stereo not drawn) [20-10] are below 0.1 µM, above 200 nm/s and below 1.
The corresponding values for `O=C(N1CC2(C1)CN(c1ccc(F)cn1)C2)N1CCOCc2cc(Cl)ccc21` [8-4] are below 0.1 µM, above 200 nm/s and 1 to 2.
The corresponding values for `CC1COc2cc(Cl)ccc2N1C(=O)N1CC2(C1)CN(c1noc3cccnc13)C2` (single isomer, unassigned) [18-3-B] are below 0.1 µM, above 200 nm/s and below 1.
For `CC1COc2cc(F)ccc2N1C(=O)N1CC2(C1)CN(c1noc3ccccc13)C2` (stereo not drawn) [4-3], in data set [1], the IC50 was below 0.1 µM. Moreover, in data set [2], the Papp A→B at 1 h, 10 μM was above 200 nm/s and the efflux ratio at 1 h, 10 μM is below 1.
In the same order, the values of `COc1ccnc(N2CC3(CN(C(=O)N4c5ccc(Cl)cc5OCC4C)C3)C2)c1` (single isomer, unassigned) [20-8-B] are below 0.1 µM, above 200 nm/s and below 1.
The corresponding values for `Cc1cncc(N2CC3(CN(C(=O)N4c5ccc(F)cc5OCC4C)C3)C2)n1` (stereo not drawn) [20-2] are below 0.1 µM, above 200 nm/s and 1 to 2.
The corresponding values for `Cc1ccnc(N2CC3(CN(C(=O)N4c5ccc(F)cc5OCC4C)C3)C2)c1` (single isomer, unassigned) [20-4-B] are below 0.1 µM, above 200 nm/s and below 1.
As to `CC1COc2cc(Cl)c(F)cc2N1C(=O)N1CC2(C1)CN(c1cccnn1)C2` (single isomer, unassigned) [19-4-A], the IC50 in data set [1] is below 0.1 µM. Further, in data set [2], the Papp A→B at 1 h, 10 μM was above 200 nm/s and the efflux ratio at 1 h, 10 μM was 1 to 2.
For the molecule `Cc1ccnc(N2CC3(CN(C(=O)N4c5ccc(Cl)cc5OCC4C)C3)C2)n1` (single isomer, unassigned) [20-12-B], the IC50 in data set [1] is below 0.1 µM. Moreover, in data set [2], the Papp A→B at 1 h, 10 μM was above 200 nm/s and the efflux ratio at 1 h, 10 μM is below 1.
In the same order, the values of `O=C(N1CC2(C1)CN(c1ccc(F)cn1)C2)N1CCOc2cc(Cl)ccc21` [9-7] are below 0.1 µM, above 200 nm/s and below 1.
As for `CC1COc2cc(Cl)c(F)cc2N1C(=O)N1CC2(C1)CN(c1cccnn1)C2` (stereo not drawn) [19-4], in data set [1], the IC50 is below 0.1 µM. Besides, in data set [2], the Papp A→B at 1 h, 10 μM is above 200 nm/s and the efflux ratio at 1 h, 10 μM is below 1.
In the case of `Cc1cncc(N2CC3(CN(C(=O)N4c5ccc(F)cc5OCC4C)C3)C2)n1` (single isomer, unassigned) [20-2-A], the IC50 in data set [1] was 0.5 to 1 µM. Moreover, in data set [2], the Papp A→B at 1 h, 10 μM was above 200 nm/s and the efflux ratio at 1 h, 10 μM is below 1.
`O=C(N1CC2(C1)CN(c1ccccn1)C2)N1CCC(O)c2cc(Cl)ccc21` (single isomer, unassigned) [13-2-B]: the IC50 in data set [1] is below 0.1 µM. In addition, in data set [2], the Papp A→B at 1 h, 10 μM was above 200 nm/s and the efflux ratio at 1 h, 10 μM fell in the range of 1 to 2.
With `Cc1nccnc1N1CC2(CN(C(=O)N3c4ccc(Cl)cc4OCC3C)C2)C1` (single isomer, unassigned) [20-10-A], the IC50 in data set [1] is below 0.1 µM. Besides, in data set [2], the Papp A→B at 1 h, 10 μM is above 200 nm/s and the efflux ratio at 1 h, 10 μM was below 1.
The corresponding values for `Cc1ccnc(N2CC3(CN(C(=O)N4c5ccc(Cl)cc5OCC4C)C3)C2)c1` (stereo not drawn) [20-11] are below 0.1 µM, above 200 nm/s and below 1.
The corresponding values for `O=C(N1CC2(C1)CN(c1cnccn1)C2)N1CCOc2cc(Cl)ccc21` [8-3] are below 0.1 µM, above 200 nm/s and below 1.
In the same order, the values of `O=C(N1CC2(C1)CN(c1ccccn1)C2)N1CCOc2cc(Cl)ccc21` [8-2] are below 0.1 µM, above 200 nm/s and below 1.
For `COc1ccnc(N2CC3(CN(C(=O)N4c5ccc(Cl)cc5OCC4C)C3)C2)n1` (single isomer, unassigned) [20-9-B], in data set [1], the IC50 was below 0.1 µM. Further, in data set [2], the Papp A→B at 1 h, 10 μM was above 200 nm/s and the efflux ratio at 1 h, 10 μM is below 1.
The corresponding values for `O=C(N1CC2(C1)CN(c1ccc(F)cn1)C2)N1CCC(O)c2cc(Cl)ccc21` (stereo not drawn) [13-1, (6-chloro-4-hydroxy-3,4-dihydroquinolin-1(2H)-yl)(6-(5-fluoropyridin-2-yl)-2,6-diazaspiro[3.3]heptan-2-yl)methanone] are below 0.1 µM, above 200 nm/s and below 1.
In the same order, the values of `O=C(N1CC2(C1)CN(c1ccccn1)C2)N1CCOCc2cc(Cl)ccc21` [8-12] are below 0.1 µM, above 200 nm/s and below 1.
The corresponding values for `CC1COc2cc(F)c(F)cc2N1C(=O)N1CC2(C1)CN(c1ncccn1)C2` (single isomer, unassigned) [19-1-B] are below 0.1 µM, above 200 nm/s and 1 to 2.
With `COc1ccnc(N2CC3(CN(C(=O)N4c5ccc(Cl)cc5OCC4C)C3)C2)n1` (stereo not drawn) [20-9], the IC50 in data set [1] was below 0.1 µM. Also, in data set [2], the Papp A→B at 1 h, 10 μM was above 200 nm/s and the efflux ratio at 1 h, 10 μM was below 1.
In the same order, the values of `CC1COc2cc(F)c(F)cc2N1C(=O)N1CC2(C1)CN(c1ccc(F)cn1)C2` (stereo not drawn) [19-5] are below 0.1 µM, above 200 nm/s and below 1.
The corresponding values for `O=C(N1CC2(C1)CN(c1ccc(F)cn1)C2)N1CCc2cc(Cl)ccc21` [8-11] are below 0.1 µM, above 200 nm/s and below 1.
For the molecule `CC1COc2cc(Cl)ccc2N1C(=O)N1CC2(C1)CN(c1ncccn1)C2` (single isomer, unassigned) [1-83-B, (7-chloro-3-methyl-2,3-dihydro-4H-benzo[b][1,4]oxazin-4-yl)(6-(pyrimidin-2-yl)-2,6-diazaspiro[3.3]heptan-2-yl)methanone], the IC50 in data set [1] was below 0.1 µM. In data set [2], the Papp A→B at 1 h, 10 μM is above 200 nm/s and the efflux ratio at 1 h, 10 μM is below 1.
As to `CC1COc2cc(F)ccc2N1C(=O)N1CC2(C1)CN(c1noc3ccccc13)C2` (single isomer, unassigned) [4-3-B], the IC50 in data set [1] was below 0.1 µM. Moreover, in data set [2], the Papp A→B at 1 h, 10 μM was above 200 nm/s and the efflux ratio at 1 h, 10 μM was below 1.
The corresponding values for `O=C(N1CC2(C1)CN(c1ccc(F)cn1)C2)N1CCC(O)c2cc(Cl)ccc21` (single isomer, unassigned) [13-1-A] are below 0.1 µM, above 200 nm/s and below 1.
Regarding `CC1COc2cc(Cl)c(F)cc2N1C(=O)N1CC2(C1)CN(c1ncccn1)C2` (single isomer, unassigned) [19-2-B], in data set [1], the IC50 is below 0.1 µM. In addition, in data set [2], the Papp A→B at 1 h, 10 μM was above 200 nm/s and the efflux ratio at 1 h, 10 μM lay in the range of 1 to 2.
